Results from PMC3694096, “Development of Novel In Vivo Chemical Probes to Address CNS Protein Kinase Involvement in Synaptic Dysfunction” (PLoS ONE, 2013).
Read-outs that look alike come from different tables or passages of the source.

Assays:
Rsk1(r) = target: T1, Rsk1(r) (Rattus norvegicus, UniProt Q63531); assay: Kinome profiler screen; format: biochemical; settings: at 20,000 nM inhibitor; kinase activity remaining
T1 construct: purchased Millipore KinaseProfiler

CDK7/cyclinH/MAT1 = target: T2, CDK7/cyclinH/MAT1 (Homo sapiens, UniProt P50613); assay: Kinome profiler screen; format: biochemical; settings: at 20,000 nM inhibitor; kinase activity remaining
T2 construct: purchased Millipore KinaseProfiler
T2 sequence (P50613 whole entry): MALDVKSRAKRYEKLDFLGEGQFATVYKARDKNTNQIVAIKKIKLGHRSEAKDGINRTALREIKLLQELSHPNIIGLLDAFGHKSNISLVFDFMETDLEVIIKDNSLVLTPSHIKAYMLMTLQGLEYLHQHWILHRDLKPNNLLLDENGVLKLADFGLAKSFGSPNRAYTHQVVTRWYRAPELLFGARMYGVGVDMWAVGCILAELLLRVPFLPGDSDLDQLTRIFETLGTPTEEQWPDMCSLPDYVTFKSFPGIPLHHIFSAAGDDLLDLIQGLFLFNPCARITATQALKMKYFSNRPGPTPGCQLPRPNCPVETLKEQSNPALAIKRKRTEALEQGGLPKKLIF
T2 sequence (P51946 whole entry partner): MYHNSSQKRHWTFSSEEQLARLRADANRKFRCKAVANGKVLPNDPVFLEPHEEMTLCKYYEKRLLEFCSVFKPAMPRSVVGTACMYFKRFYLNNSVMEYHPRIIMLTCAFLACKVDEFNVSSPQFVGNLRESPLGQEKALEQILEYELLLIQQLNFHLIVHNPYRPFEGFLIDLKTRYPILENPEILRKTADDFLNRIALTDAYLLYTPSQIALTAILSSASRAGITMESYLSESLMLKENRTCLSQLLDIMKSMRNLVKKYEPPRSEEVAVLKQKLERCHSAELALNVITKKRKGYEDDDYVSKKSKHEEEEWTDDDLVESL
T2 sequence (P51948 whole entry partner): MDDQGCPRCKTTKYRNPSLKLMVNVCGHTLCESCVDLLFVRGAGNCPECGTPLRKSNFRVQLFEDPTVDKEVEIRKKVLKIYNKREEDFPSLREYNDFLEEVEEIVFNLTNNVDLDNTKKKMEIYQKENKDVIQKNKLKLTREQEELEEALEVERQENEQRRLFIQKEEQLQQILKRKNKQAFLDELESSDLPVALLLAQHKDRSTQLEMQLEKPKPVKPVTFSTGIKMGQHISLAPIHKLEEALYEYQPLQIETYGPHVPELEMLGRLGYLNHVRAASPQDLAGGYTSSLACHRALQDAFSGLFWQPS

FGFR2 = target: T3, FGFR2 (Homo sapiens, UniProt P21802); assay: Kinome profiler screen; format: biochemical; settings: at 20,000 nM inhibitor; kinase activity remaining
T3 construct: purchased Millipore KinaseProfiler

DYRK2 = target: T4, DYRK2 (Homo sapiens, UniProt Q92630); assay: Kinome profiler screen; format: biochemical; settings: at 20,000 nM inhibitor; kinase activity remaining
T4 construct: purchased Millipore KinaseProfiler
T4 sequence (Q92630 whole entry): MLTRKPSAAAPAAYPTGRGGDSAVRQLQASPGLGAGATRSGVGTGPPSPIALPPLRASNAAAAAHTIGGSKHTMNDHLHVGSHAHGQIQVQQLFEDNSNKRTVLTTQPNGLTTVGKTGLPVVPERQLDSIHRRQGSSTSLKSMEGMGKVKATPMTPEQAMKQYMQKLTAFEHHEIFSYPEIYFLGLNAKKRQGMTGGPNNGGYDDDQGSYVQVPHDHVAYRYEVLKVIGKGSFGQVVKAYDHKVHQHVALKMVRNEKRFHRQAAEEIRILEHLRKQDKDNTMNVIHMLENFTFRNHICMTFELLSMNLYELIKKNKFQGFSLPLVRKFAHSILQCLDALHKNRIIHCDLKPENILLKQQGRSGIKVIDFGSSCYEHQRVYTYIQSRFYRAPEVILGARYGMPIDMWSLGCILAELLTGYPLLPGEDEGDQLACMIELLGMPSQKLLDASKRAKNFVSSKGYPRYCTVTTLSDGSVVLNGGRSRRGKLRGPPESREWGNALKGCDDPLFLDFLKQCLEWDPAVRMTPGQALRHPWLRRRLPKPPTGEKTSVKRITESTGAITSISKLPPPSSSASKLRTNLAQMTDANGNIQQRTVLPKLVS

CaMKIV = target: T5, CaMKIV (Homo sapiens, UniProt Q16566); assay: Kinome profiler screen; format: biochemical; settings: at 20,000 nM inhibitor; kinase activity remaining
T5 construct: purchased Millipore KinaseProfiler

MSK1 = target: T6, MSK1 (Homo sapiens, UniProt O75582); assay: Kinome profiler screen; format: biochemical; settings: at 20,000 nM inhibitor; kinase activity remaining
T6 construct: purchased Millipore KinaseProfiler

SRPK2 = target: T7, SRPK2 (Homo sapiens, UniProt P78362); assay: Kinome profiler screen; format: biochemical; settings: at 20,000 nM inhibitor; kinase activity remaining
T7 construct: purchased Millipore KinaseProfiler

MuSK = target: T8, MuSK (Homo sapiens, UniProt O15146); assay: Kinome profiler screen; format: biochemical; settings: at 20,000 nM inhibitor; kinase activity remaining
T8 construct: purchased Millipore KinaseProfiler

Ron = target: T9, Ron (Homo sapiens, UniProt Q04912); assay: Kinome profiler screen; format: biochemical; settings: at 20,000 nM inhibitor; kinase activity remaining
T9 construct: purchased Millipore KinaseProfiler

CaMKIδ = target: T10, CaMKIδ (Homo sapiens, UniProt Q8IU85); assay: Kinome profiler screen; format: biochemical; settings: at 20,000 nM inhibitor; kinase activity remaining
T10 construct: purchased Millipore KinaseProfiler
T10 sequence (Q8IU85 whole entry): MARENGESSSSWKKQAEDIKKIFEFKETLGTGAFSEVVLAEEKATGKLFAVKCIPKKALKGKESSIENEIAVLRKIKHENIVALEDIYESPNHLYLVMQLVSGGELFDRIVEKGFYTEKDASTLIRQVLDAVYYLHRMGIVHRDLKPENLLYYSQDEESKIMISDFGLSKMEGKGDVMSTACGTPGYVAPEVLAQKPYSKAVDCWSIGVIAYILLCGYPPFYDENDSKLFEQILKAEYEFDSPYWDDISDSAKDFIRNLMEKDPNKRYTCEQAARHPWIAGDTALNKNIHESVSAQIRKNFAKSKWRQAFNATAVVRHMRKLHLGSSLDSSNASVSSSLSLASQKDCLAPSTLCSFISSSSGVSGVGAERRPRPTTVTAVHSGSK

IR = target: T11, IR (Homo sapiens, UniProt P06213); assay: Kinome profiler screen; format: biochemical; settings: at 20,000 nM inhibitor; kinase activity remaining
T11 construct: purchased Millipore KinaseProfiler

[1] = target: T12, PI3 Kinase (p110α/p65α)(m) (Mus musculus, UniProt P42337); assay: Kinome profiler screen; format: biochemical; settings: at 20,000 nM inhibitor; kinase activity remaining
T12 construct: purchased Millipore KinaseProfiler

Lck activated = target: T13, Lck activated (Homo sapiens, UniProt P06239); assay: Kinome profiler screen; format: biochemical; settings: at 20,000 nM inhibitor; kinase activity remaining
T13 construct: purchased Millipore KinaseProfiler
T13 sequence (P06239 whole entry): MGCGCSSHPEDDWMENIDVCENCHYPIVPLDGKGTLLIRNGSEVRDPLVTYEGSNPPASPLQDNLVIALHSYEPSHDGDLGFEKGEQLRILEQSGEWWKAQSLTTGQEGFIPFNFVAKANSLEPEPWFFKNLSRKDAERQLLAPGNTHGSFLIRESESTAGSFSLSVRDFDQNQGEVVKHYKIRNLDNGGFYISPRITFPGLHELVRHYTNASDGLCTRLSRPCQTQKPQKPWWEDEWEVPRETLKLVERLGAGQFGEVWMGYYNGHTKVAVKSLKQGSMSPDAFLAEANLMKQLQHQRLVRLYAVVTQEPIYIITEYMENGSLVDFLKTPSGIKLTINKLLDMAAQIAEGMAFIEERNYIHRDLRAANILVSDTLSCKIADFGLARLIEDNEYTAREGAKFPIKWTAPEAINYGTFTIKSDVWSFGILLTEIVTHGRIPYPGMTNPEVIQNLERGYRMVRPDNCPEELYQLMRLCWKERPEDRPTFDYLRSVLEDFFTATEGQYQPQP

Plk1 = target: T14, Plk1 (Homo sapiens, UniProt P53350); assay: Kinome profiler screen; format: biochemical; settings: at 20,000 nM inhibitor; kinase activity remaining
T14 construct: purchased Millipore KinaseProfiler
T14 sequence (P53350 whole entry): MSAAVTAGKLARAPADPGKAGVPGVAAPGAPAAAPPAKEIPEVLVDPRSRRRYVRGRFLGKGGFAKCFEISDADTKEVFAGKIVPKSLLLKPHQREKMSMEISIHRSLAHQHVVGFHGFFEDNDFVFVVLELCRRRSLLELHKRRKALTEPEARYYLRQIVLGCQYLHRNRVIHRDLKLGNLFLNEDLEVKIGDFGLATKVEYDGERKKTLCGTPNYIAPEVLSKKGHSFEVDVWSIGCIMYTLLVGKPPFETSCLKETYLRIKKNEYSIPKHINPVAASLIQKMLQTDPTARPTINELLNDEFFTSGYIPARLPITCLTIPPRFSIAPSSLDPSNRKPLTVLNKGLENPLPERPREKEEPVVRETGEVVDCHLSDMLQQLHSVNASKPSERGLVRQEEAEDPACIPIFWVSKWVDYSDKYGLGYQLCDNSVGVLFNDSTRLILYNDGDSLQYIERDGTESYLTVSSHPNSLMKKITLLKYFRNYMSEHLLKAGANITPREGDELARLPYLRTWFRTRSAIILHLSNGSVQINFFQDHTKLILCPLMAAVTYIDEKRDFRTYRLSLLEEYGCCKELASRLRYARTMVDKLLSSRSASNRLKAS

Src(T341M) = target: T15, Src(T341M) (Homo sapiens, UniProt P12931, T341M); assay: Kinome profiler screen; format: biochemical; settings: at 20,000 nM inhibitor; kinase activity remaining
T15 construct: purchased Millipore KinaseProfiler

PKCη = target: T16, PKCη (Homo sapiens, UniProt P24723); assay: Kinome profiler screen; format: biochemical; settings: at 20,000 nM inhibitor; kinase activity remaining
T16 construct: purchased Millipore KinaseProfiler

EphA1 = target: T17, EphA1 (Homo sapiens, UniProt P21709); assay: Kinome profiler screen; format: biochemical; settings: at 20,000 nM inhibitor; kinase activity remaining
T17 construct: purchased Millipore KinaseProfiler

Pyk2 = target: T18, Pyk2 (Homo sapiens, UniProt Q14289); assay: Kinome profiler screen; format: biochemical; settings: at 20,000 nM inhibitor; kinase activity remaining
T18 construct: purchased Millipore KinaseProfiler

Met(Y1248H) = target: T19, Met(Y1248H) (Homo sapiens, UniProt P08581, Y1230H); assay: Kinome profiler screen; format: biochemical; settings: at 20,000 nM inhibitor; kinase activity remaining
T19 construct: purchased Millipore KinaseProfiler

PRK2 = target: T20, PRK2 (Homo sapiens, UniProt Q16513); assay: Kinome profiler screen; format: biochemical; settings: at 20,000 nM inhibitor; kinase activity remaining
T20 construct: purchased Millipore KinaseProfiler

PKBβ = target: T21, PKBβ (Homo sapiens, UniProt P31751); assay: Kinome profiler screen; format: biochemical; settings: at 20,000 nM inhibitor; kinase activity remaining
T21 construct: purchased Millipore KinaseProfiler

NEK2 = target: T22, NEK2 (Homo sapiens, UniProt P51955); assay: Kinome profiler screen; format: biochemical; settings: at 20,000 nM inhibitor; kinase activity remaining
T22 construct: purchased Millipore KinaseProfiler

Mnk2 = target: T23, Mnk2 (Homo sapiens, UniProt Q9HBH9); assay: Kinome profiler screen; format: biochemical; settings: at 20,000 nM inhibitor; kinase activity remaining
T23 construct: purchased Millipore KinaseProfiler
T23 sequence (Q9HBH9 whole entry): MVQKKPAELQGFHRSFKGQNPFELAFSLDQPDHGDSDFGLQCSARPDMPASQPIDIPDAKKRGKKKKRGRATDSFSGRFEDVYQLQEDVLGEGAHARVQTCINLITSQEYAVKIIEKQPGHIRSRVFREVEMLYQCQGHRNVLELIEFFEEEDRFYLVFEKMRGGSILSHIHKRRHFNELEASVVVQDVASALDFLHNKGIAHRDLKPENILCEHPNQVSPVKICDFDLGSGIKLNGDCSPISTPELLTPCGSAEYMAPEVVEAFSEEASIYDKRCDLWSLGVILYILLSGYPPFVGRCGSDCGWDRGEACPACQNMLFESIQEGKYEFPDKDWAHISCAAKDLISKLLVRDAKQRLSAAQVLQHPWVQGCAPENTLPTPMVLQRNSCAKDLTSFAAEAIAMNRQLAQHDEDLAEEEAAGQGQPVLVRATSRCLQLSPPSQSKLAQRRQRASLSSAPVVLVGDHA

[2] = Dose escalation adverse event screen (SHIRPA based); format: in vivo; settings: highest dose at which no adverse events are observed in dose escalation studies, mice
Source text: Novel compounds were screened in vivo using a standard dose escalation screen in mice coupled with clinical observation and testing based on the SHIRPA mouse phenotype assay paradigm. To obtain insight into the potential for off-target activity with the largest known family of small molecule drug targets, G-protein coupled receptors (GPCRs), a cell-based functional screen of the final title compounds was done. The Millipore® GPCR Profiler screen employs the ChemiScreen GPCR stable cell line technology used for real-time calcium flux FLIPR assays on a panel of 158 GPCRs to detect both antagonists and agonists. The NCBI Entrez identifier for each GPCR is provided at the vendor site (www.millipore.com). Follow-up validation of any initial hits as being true positives or negatives was done as described above for protein kinases by testing the concentration dependence of any cellular effects. No validated hits were detected.

PTK5 = target: T24, PTK5 (Homo sapiens, UniProt P42685); assay: Kinome profiler screen; format: biochemical; settings: at 20,000 nM inhibitor; kinase activity remaining
T24 construct: purchased Millipore KinaseProfiler
T24 sequence (P42685 whole entry): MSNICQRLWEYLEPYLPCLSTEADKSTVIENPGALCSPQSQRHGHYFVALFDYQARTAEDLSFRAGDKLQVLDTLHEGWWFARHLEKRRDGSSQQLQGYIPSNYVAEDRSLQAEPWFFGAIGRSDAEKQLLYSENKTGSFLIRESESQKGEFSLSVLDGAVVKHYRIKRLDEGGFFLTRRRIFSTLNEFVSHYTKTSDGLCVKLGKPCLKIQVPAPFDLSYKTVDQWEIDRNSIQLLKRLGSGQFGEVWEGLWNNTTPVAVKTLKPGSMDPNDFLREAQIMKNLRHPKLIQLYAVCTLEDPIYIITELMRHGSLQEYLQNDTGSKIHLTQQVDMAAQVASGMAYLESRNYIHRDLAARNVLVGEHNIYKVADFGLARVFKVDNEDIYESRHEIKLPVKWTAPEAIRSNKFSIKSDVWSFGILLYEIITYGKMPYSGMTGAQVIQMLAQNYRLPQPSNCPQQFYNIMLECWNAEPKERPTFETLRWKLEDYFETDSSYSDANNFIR

ROCK-II(r) = target: T25, ROCK-II(r) (Rattus norvegicus, UniProt Q62868); assay: Kinome profiler screen; format: biochemical; settings: at 20,000 nM inhibitor; kinase activity remaining
T25 construct: purchased Millipore KinaseProfiler

MEK1 = target: T26, MEK1 (Homo sapiens, UniProt Q02750); assay: Kinome profiler screen; format: biochemical; settings: at 20,000 nM inhibitor; kinase activity remaining
T26 construct: purchased Millipore KinaseProfiler

PDGFRα(V561D) = target: T27, PDGFRα(V561D) (Homo sapiens, UniProt P16234, V561D); assay: Kinome profiler screen; format: biochemical
T27 construct: purchased Millipore KinaseProfiler

CLK3 = target: T28, CLK3 (Homo sapiens, UniProt P49761); assay: Kinome profiler screen; format: biochemical; settings: at 20,000 nM inhibitor; kinase activity remaining
T28 construct: purchased Millipore KinaseProfiler

CK2α2 = target: T29, CK2α2 (Homo sapiens, UniProt P19784); assay: Kinome profiler screen; format: biochemical
T29 construct: purchased Millipore KinaseProfiler
T29 sequence (P19784 whole entry): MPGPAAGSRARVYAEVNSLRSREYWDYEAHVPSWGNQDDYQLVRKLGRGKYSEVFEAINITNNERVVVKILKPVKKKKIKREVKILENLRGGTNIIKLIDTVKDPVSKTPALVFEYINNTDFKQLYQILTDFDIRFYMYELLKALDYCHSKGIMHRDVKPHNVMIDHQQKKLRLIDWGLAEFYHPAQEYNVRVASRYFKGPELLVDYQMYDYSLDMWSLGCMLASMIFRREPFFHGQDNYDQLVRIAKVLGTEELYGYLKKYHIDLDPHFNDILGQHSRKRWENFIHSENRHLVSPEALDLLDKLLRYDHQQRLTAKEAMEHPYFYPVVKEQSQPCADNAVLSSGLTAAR

Ret = target: T30, Ret (Homo sapiens, UniProt P07949); assay: Kinome profiler screen; format: biochemical; settings: at 20,000 nM inhibitor; kinase activity remaining
T30 construct: purchased Millipore KinaseProfiler

CaMKIIδ = target: T31, CaMKIIδ (Homo sapiens, UniProt Q13557); assay: Kinome profiler screen; format: biochemical; settings: at 20,000 nM inhibitor; kinase activity remaining
T31 construct: purchased Millipore KinaseProfiler
T31 sequence (Q13557 whole entry): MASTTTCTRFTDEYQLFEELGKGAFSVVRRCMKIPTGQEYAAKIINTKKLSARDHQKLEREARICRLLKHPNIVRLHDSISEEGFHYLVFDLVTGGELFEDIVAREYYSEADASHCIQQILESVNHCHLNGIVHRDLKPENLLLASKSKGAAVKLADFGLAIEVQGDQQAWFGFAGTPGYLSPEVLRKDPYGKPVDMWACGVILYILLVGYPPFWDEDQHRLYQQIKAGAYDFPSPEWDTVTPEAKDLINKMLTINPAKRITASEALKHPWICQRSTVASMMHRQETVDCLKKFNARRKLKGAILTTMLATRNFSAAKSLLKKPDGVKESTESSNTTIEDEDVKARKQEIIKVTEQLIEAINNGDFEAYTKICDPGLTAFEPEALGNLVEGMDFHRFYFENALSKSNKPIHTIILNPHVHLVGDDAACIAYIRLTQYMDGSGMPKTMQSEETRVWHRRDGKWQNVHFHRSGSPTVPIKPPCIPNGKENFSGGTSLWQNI

EphA5 = target: T32, EphA5 (Homo sapiens, UniProt P54756); assay: Kinome profiler screen; format: biochemical; settings: at 20,000 nM inhibitor; kinase activity remaining
T32 construct: purchased Millipore KinaseProfiler

Ret(V804M) = target: T33, Ret(V804M) (Homo sapiens, UniProt P07949, V804M); assay: Kinome profiler screen; format: biochemical; settings: at 20,000 nM inhibitor; kinase activity remaining
T33 construct: purchased Millipore KinaseProfiler

CDK5/p35 = target: T34, CDK5/p35 (Homo sapiens, UniProt Q00535); assay: Kinome profiler screen; format: biochemical; settings: at 20,000 nM inhibitor; kinase activity remaining
T34 construct: purchased Millipore KinaseProfiler

TLK2 = target: T35, TLK2 (Homo sapiens, UniProt Q86UE8); assay: Kinome profiler screen; format: biochemical; settings: at 20,000 nM inhibitor; kinase activity remaining
T35 construct: purchased Millipore KinaseProfiler

MAPK2(m) = target: T36, MAPK2(m) (Mus musculus, UniProt P63085); assay: Kinome profiler screen; format: biochemical; settings: at 20,000 nM inhibitor; kinase activity remaining
T36 construct: purchased Millipore KinaseProfiler

PI3 Kinase (p120γ) = target: T37, PI3 Kinase (p120γ) (Homo sapiens, UniProt P48736); assay: Kinome profiler screen; format: biochemical; settings: at 20,000 nM inhibitor; kinase activity remaining
T37 construct: purchased Millipore KinaseProfiler

PDGFRα(D842V) = target: T38, PDGFRα(D842V) (Homo sapiens, UniProt P16234, D842V); assay: Kinome profiler screen; format: biochemical; settings: at 20,000 nM inhibitor; kinase activity remaining
T38 construct: purchased Millipore KinaseProfiler

[3] = at 20,000 nM inhibitor, kinase activity remaining, read-out: % Activity

Row | SMILES | activity at 20 µM (Rsk1(r)) [%] | activity at 20 µM (CDK7/cyclinH/MAT1) [%] | activity at 20 µM (FGFR2) [%] | activity at 20 µM (DYRK2) [%] | activity at 20 µM (CaMKIV) [%] | activity at 20 µM (MSK1) [%] | activity at 20 µM (SRPK2) [%] | activity at 20 µM (MuSK) [%] | activity at 20 µM (Ron) [%] | activity at 20 µM (CaMKIδ) [%] | activity at 20 µM (IR) [%] | activity at 20 µM [1] [%] | activity at 20 µM (Lck activated) [%] | activity at 20 µM (Plk1) [%] | activity at 20 µM (Src(T341M)) [%] | activity at 20 µM (PKCη) [%] | activity at 20 µM (EphA1) [%] | activity at 20 µM (Pyk2) [%] | activity at 20 µM (Met(Y1248H)) [%] | activity at 20 µM (PRK2) [%] | other results
1 | CN(C)c1cc(-c2ccncc2)c(-c2cccc3ccccc23)nn1 [MW181, N,N-dimethyl-6-(naphthalen-1-yl)-5-(pyridin-4-yl)pyridazin-3-amine] | 93 | 99 | 98 | 109 | 105 | 106 | 109 | 102 | 94 | 103 | 112 | 100 | 84 | 110 | 102 | 104 | 76 | 101 | 103 | 96 | activity at 20 µM (PKBβ): 102%; activity at 20 µM (NEK2): 94%; activity at 20 µM (Mnk2): 99%; Dose Escalating Adverse Event Screen / Adverse Pharm Dose [2]: ≥ 200 mg/kg; Dose Escalating Adverse Event Screen / Adverse Pharm Dose ([2]; listed as MW01-10-181SRM): > 200 mg/kg; activity at 20 µM (PTK5): 90%; activity at 20 µM (ROCK-II(r)): 92%; activity at 20 µM (MEK1): 105%; activity at 20 µM (PDGFRα(V561D); [3]): 103%; activity at 20 µM (CLK3): 101%; activity at 20 µM (CK2α2; [3]): 99%; activity at 20 µM (Ret): 118%; activity at 20 µM (CaMKIIδ): 106%; activity at 20 µM (EphA5): 101%; activity at 20 µM (Ret(V804M)): 102%; activity at 20 µM (CDK5/p35): 95%; activity at 20 µM (TLK2): 107%; activity at 20 µM (MAPK2(m)): 106%; activity at 20 µM (PI3 Kinase (p120γ)): 100%; activity at 20 µM (PDGFRα(D842V)): 104%
2 | CN(C)c1cc(-c2ccncc2)c(-c2ccc3ccccc3c2)nn1 [MW108, N, N-dimethyl-6-(naphthalen-2-yl)-5-(pyridin-4-yl)pyridazin-3-amine] | 91 | 98 | 101 | 108 | 100 | 97 | 95 | 104 | 91 | 97 | 100 | 101 | 70 | 96 | 92 | 88 | 97 | 106 | 88 | 103 | activity at 20 µM (PKBβ): 98%; activity at 20 µM (NEK2): 96%; activity at 20 µM (Mnk2): 99%; Dose Escalating Adverse Event Screen / Adverse Pharm Dose [2]: ≥ 200 mg/kg; Dose Escalating Adverse Event Screen / Adverse Pharm Dose ([2]; listed as MW01-11-108SRM): > 200 mg/kg; activity at 20 µM (PTK5): 80%; activity at 20 µM (ROCK-II(r)): 97%; activity at 20 µM (MEK1): 130%; activity at 20 µM (PDGFRα(V561D)): 114%; activity at 20 µM (CLK3): 102%; activity at 20 µM (CK2α2): 114%; activity at 20 µM (Ret): 94%; activity at 20 µM (CaMKIIδ): 100%; activity at 20 µM (EphA5): 100%; activity at 20 µM (Ret(V804M)): 85%; activity at 20 µM (CDK5/p35): 99%; activity at 20 µM (TLK2): 99%; activity at 20 µM (MAPK2(m)): 109%; activity at 20 µM (PI3 Kinase (p120γ)): 101%; activity at 20 µM (PDGFRα(D842V)): 89%
